Assays:
PPARα [1] = molecular target: T1, PPARα (Homo sapiens, UniProt Q07869); experiment: Fluorescent Polarization (FP) binding assay with corepressor peptides, PPARα; details: Nb = no binding
T1 construct: purchased Cayman Chemicals
T1 sequence (Q07869 239-466 limits assumed): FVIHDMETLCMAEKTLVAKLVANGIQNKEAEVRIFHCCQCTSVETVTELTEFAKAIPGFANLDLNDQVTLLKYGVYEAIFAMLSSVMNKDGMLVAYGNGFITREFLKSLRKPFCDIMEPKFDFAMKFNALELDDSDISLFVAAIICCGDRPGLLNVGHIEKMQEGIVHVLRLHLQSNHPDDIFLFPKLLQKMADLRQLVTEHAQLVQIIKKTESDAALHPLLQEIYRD
Method: (§1) For PPARγ screening, a fluorescent ligand supplied by Cayman Chemicals was also used. All compounds were dissolved in DMSO as 10 mM stock solutions and the final DMSO content in the assay was <1%. A TECAN Ultra 485 multi-functional microplate reader and GraphPad prism 4 software were used for measurements and analysis, respectively.
(§2) PPAR antagonists are expected to enhance the affinities of the corepressor peptides, and therefore, FP should increase as the compound concentration increases. Agonists would be expected to weaken the affinity of the same co-repressor peptide. Although this effect occurs for PPARγ, the dissociation of corepressor peptides varies for PPARα and PPARδ due to altered presentations of the overlapping coactivator/corepressor binding surfaces (Stanley T. B. et al. Biochemistry 42:9278-87, 2003). Compounds were screened initially against PPARγ and PPARδ at 1 and 100 μM. If binding was observed, titration experiments from 10 nM to 100 μM were carried out in triplicate with all three PPARs. […] For screening, either enhancement or weakening of FP was considered active.
(§3) Virtual screening for PPARγ was conducted against 56,000 compounds from the Maybridge library that targeted the ligand binding domain (LBD) of PPARγ, and 10 conformations of each compound were docked to the LBD using Autdock4 software (Scripps Institute). Sixty of the top ranked compounds were ordered from Maybridge, and 58 were available for evaluation. Fluorescent Polarization (FP) assays were established with the tagged co-repressor peptides NCoR1 and SMRT, the recombinant PPARα and PPARγ ligand-binding domains and full-length PPARδ. […] Sd-107 and its analogs are disclosed herein. The chemical structure is shown below.

PPARγ [2] = molecular target: T2, PPARγ (Homo sapiens, UniProt P37231); experiment: Fluorescent Polarization (FP) binding assay with corepressor peptides, PPARγ; details: for EC50 / Binding assay EC50, γ: FP assay, Nb = no binding; for EC50: read-out: Binding assay EC50, γ; for Competition in FPA of PPARγ with fluorescent labeled NCoR peptide probe: FIG. 17, YL-1-80 analogs
T2 construct: purchased Cayman Chemicals
T2 sequence (P37231 238-503 limits assumed): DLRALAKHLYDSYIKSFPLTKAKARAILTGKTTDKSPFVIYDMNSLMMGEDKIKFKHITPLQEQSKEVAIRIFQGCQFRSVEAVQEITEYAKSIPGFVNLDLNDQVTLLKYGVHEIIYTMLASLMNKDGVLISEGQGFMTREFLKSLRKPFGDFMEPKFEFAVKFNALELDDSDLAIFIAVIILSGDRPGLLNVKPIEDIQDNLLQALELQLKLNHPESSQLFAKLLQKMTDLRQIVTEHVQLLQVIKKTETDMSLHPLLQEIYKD
Method: as §1, §2, §3

PPARδ [3] = molecular target: T3, PPARδ (Homo sapiens, UniProt Q03181); experiment: Fluorescent Polarization (FP) binding assay with corepressor peptides, PPARδ; details: Nb = no binding
T3 construct: purchased Cayman Chemicals
T3 sequence (Q03181 1-441): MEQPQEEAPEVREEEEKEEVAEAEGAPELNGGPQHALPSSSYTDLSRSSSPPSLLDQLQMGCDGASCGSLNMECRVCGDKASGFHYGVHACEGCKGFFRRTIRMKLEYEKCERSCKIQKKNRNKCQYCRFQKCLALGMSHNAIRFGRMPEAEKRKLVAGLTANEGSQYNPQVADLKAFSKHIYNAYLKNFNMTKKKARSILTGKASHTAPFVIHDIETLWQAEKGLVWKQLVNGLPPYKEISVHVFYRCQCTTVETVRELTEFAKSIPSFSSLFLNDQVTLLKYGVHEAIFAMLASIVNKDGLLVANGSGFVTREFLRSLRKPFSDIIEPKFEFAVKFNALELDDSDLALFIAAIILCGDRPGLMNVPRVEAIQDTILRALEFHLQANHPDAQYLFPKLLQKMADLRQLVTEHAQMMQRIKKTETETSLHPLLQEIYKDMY
Method: as §1, §2, §3

PPARα [4] = experiment: PPAR reporter assay in 293T cells, PPARα (agonist WY14643); type: cell-based; details: 1 μM agonist WY14643
PPARγ [5] = molecular target: T4, PPARγ (Mus musculus, UniProt P37238); experiment: PPAR reporter assay in 293T cells, PPARγ (agonist GW7845); type: cell-based; details: for inhibition at 1 µM / inhibition at 10 µM / inhibition at 25 µM / inhibition at 2.5 µM: HEK-293T, 1 μM agonist GW7845, 293T cells, read-out: Reporter assay (% inhibition), γ; for inhibition at 1 µM: 1 μM compound; for inhibition at 10 µM: 10 μM compound; for inhibition at 25 µM: 25 μM compound; for inhibition at 2.5 µM: 2.5 μM compound
T4 construct: expressed in transfected cells; host or cells: 293T cells
T4 sequence (P37238 1-505): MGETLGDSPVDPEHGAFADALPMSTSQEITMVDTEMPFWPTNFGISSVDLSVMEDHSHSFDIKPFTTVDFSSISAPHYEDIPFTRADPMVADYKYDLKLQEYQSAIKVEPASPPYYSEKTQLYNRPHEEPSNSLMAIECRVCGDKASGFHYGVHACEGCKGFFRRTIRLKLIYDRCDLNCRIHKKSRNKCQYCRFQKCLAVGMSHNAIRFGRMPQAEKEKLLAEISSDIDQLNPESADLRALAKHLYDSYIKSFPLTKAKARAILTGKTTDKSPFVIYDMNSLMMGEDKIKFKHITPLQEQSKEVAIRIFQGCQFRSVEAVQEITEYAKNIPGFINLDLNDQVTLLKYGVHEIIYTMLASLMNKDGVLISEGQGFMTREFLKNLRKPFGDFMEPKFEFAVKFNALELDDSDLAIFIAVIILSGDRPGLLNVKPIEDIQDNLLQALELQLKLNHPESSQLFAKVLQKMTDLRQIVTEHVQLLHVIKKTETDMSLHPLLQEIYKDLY

PPARδ [6] = experiment: PPAR reporter assay in 293T cells, PPARδ (agonist GW501516); type: cell-based; details: 1 μM agonist GW501516
PPARα, PPARγ, PPARδ = experiment: PPAR reporter assays, isotype profile over the three PPARs; details: for PPAR inhibitor type (Table 1): from reporter data; for PPAR isotype selectivity in reporter assays: inhibition of activation by 1 μM agonist

Row | Binding assay EC50, α (PPARα [1]) | EC50 (PPARγ [2]) [µM] | Binding assay EC50, δ (PPARδ [3]) | inhibition at 1 µM (PPARγ [5]) [%] | inhibition at 10 µM (PPARγ [5]) [%] | inhibition at 25 µM (PPARγ [5]) [%] | Structure (SMILES) | Reporter assay (% inhibition), α (PPARα [4]; 1 μM compound) [%] | Reporter assay (% inhibition), α (PPARα [4]; 10 μM compound) [%] | Reporter assay (% inhibition), α (PPARα [4]; 25 μM compound) [%] | Reporter assay (% inhibition), δ (PPARδ [6]; 1 μM compound) | Reporter assay (% inhibition), δ (PPARδ [6]; 10 μM compound) [%] | Reporter assay (% inhibition), δ (PPARδ [6]; 25 μM compound) [%] | PPAR inhibitor type (Table 1) (PPARα, PPARγ, PPARδ) | also measured
1 | nb | 1.4 | δ nb | 0 | 23 | 67 | CC(C)(C)c1ccc(S(=O)(=O)N(NC(=O)c2ccc(Cl)cc2)C(=O)c2ccc(Cl)cc2)cc1 [YL-1-68-2] | 16 | 23 | 57 | 0% | 18 | 46 | Pan inhibitor | 
2 | nb | 9.2 | δ nb | 18 | 58 | 79 | CC(C)(C)c1ccc(C(=O)N(NC(=O)c2ccc(Cl)cc2)S(=O)(=O)c2ccc(C(C)(C)C)cc2)cc1 [YL-1-80] | 0 | 24 | 53 | δ 12% | 31 | 64 | Pan inhibitor | Competition in FPA of PPARγ with fluorescent labeled NCoR peptide probe (PPARγ [2]): best competition
3 | nb | 15.2 | δ nb |  |  | 32 | O=C(NN(C(=O)c1ccc(Cl)cc1)S(=O)(=O)c1ccc(C(F)(F)F)cc1)c1ccc(Cl)cc1 [YL-1-81] |  |  | 8 |  |  | 46 | PPARγ/δ inhibitor | 

The remaining lines, values behind:

Row | Structure (SMILES) | Binding assay EC50, α (PPARα [1]) | EC50 (PPARγ [2]) [µM] | Binding assay EC50, δ (PPARδ [3]) | inhibition at 1 µM (PPARγ [5]) [%] | inhibition at 10 µM (PPARγ [5]) [%] | inhibition at 25 µM (PPARγ [5]) [%] | Reporter assay (% inhibition), α (PPARα [4]; 1 μM compound) [%] | Reporter assay (% inhibition), α (PPARα [4]; 10 μM compound) [%] | Reporter assay (% inhibition), α (PPARα [4]; 25 μM compound) [%] | Reporter assay (% inhibition), δ (PPARδ [6]; 1 μM compound) | Reporter assay (% inhibition), δ (PPARδ [6]; 10 μM compound) [%] | Reporter assay (% inhibition), δ (PPARδ [6]; 25 μM compound) [%] | PPAR inhibitor type (Table 1) (PPARα, PPARγ, PPARδ) | also measured
4 | O=C1NN(c2cccc(F)c2)C(=O)/C1=C\c1ccc(-c2ccc(S(=O)(=O)Nc3ncco3)cc2)o1 [Sd-107-10] | nb | 0.56 | δ nb | 0 | 40 | 85 | 0 | 0 | 20 | 0% | 0 | 10 | PPARγ inhibitor | PPAR isotype selectivity in reporter assays (PPARα, PPARγ, PPARδ): greatest selectivity for PPARγ
5 | COc1ccc(S(=O)(=O)N(C(=O)c2ccc(Cl)cc2)N(C(=O)c2ccc(Cl)cc2)C(=O)c2ccc(Cl)cc2)cc1 [YL-1-38-1] | nb | 40.8 | δ nb | 0 | 50 | 75 | 0 | 15 | 40 | 0% | 0 | 47 | Pan inhibitor | Effect on FP of corepressor peptide, PPARγ (PPARγ [2]; FIG. 3): weakened the affinity of the peptide to PPARγ; Selectivity of binding in FP assay (PPARγ [2]; titration with all three PPARs): selective binding to PPARγ; Reporter assay (% inhibition), α (PPARα [4]; 2.5 μM compound): 0%; inhibition at 2.5 µM (PPARγ [5]): 16%; Reporter assay (% inhibition), δ (PPARδ [6]; 2.5 μM compound): 0%
6 | CC(C)(C)c1ccc(S(=O)(=O)N(C(=O)c2ccc(Cl)cc2)N(C(=O)c2ccc(Cl)cc2)C(=O)c2ccc(Cl)cc2)cc1 [YL-1-68-1] | α nb γ nb |  | δ nb | 0 | 50 | 75 | 0 | 0 | 17 | 0% | 0 | 47 | PPARγ/δ inhibitor | Binding assay EC50, γ (PPARγ [2]): α nb γ nb; inhibition at 2.5 µM (PPARγ [5]): 16%; Reporter assay (% inhibition), δ (PPARδ [6]; 2.5 μM compound): 0%
7 | CC(C)(C)c1ccc(C(=O)N(N)S(=O)(=O)c2ccc(C(C)(C)C)cc2)cc1 [YL-1-69] | α nb γ nb |  | δ nb | 0 | 25 | 50 | 0 | 15 | 20 | 0% | 10 | 20 | Pan inhibitor | Binding assay EC50, γ (PPARγ [2]): α nb γ nb
8 | CC(C)(C)c1ccc(S(=O)(=O)N(NC(=O)c2ccc(Cl)nc2)C(=O)c2ccc(Cl)nc2)cc1 [YL-1-83] |  | 0.11 | δ nb | 0 | 0 | 37 | 0 | 0 | 0 | 0% | 0 | 0 | PPARγ inhibitor | EC50 (PPARα [1]; read-out: Binding assay EC50, α): 1.3 µM; Competition in FPA of PPARγ with fluorescent labeled NCoR peptide probe (PPARγ [2]): best competition; PPARγ antagonism (PPARγ [5]; binding and reporter screening): weak PPARγ antagonist; PPAR isotype selectivity in reporter assays (PPARα, PPARγ, PPARδ): more selective for PPARγ

Reference: US20130158063A1, “Compounds, Compositions and Methods Related to PPAR Antagonists” (GEORGETOWN UNIVERSITY, priority 2010, published 2013)
